Experimental data from PubChem BioAssay (NCI).
Values joined by “and” are separate entries in the source; they are usually repeats but may differ in a detail not shown here. Equal values may be shown once.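 Dose response: 5 concentrations. Exposure: 48 h. Format: 96-well plates. Endpoint: linear interpolation; highest concentration if not reached. At the GI50, growth is halved. The concentration for full growth arrest is given as TGI.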

Assays:
Test in all cases: NCI tumour cell line growth inhibition, 48 h
ACHN renal = system: ACHN renal
HCT-15 colon = system: HCT-15 colon
MALME-3M melanoma = system: MALME-3M melanoma
MOLT-4 leukemia = system: MOLT-4 leukemia
NCI-H23 lung = system: NCI-H23 lung
SF-295 CNS = system: SF-295 CNS
SK-MEL-2 melanoma = system: SK-MEL-2 melanoma
SK-MEL-28 melanoma = system: SK-MEL-28 melanoma
SK-MEL-5 melanoma = system: SK-MEL-5 melanoma
T-47D breast = system: T-47D breast

Compound	GI50 (ACHN renal)	TGI (ACHN renal)	GI50 (HCT-15 colon)	TGI (HCT-15 colon)	GI50 (MALME-3M melanoma)	TGI (MALME-3M melanoma)	GI50 (MOLT-4 leukemia)	TGI (MOLT-4 leukemia)	GI50 (NCI-H23 lung)	TGI (NCI-H23 lung)	GI50 (SF-295 CNS)	TGI (SF-295 CNS)	GI50 (SK-MEL-2 melanoma)	TGI (SK-MEL-2 melanoma)	GI50 (SK-MEL-28 melanoma)	TGI (SK-MEL-28 melanoma)	GI50 (SK-MEL-5 melanoma)	TGI (SK-MEL-5 melanoma)	GI50 (T-47D breast)	TGI (T-47D breast)
Cc1nn(Cc2ccccc2)cc1C(=O)Nc1sc2c(c1C(N)=O)CCC(=O)C2	1.65 µM	3.35 µM	1.63 µM	3.72 µM	1.89 µM	3.79 µM	2.62 µM	9.27 µM	2.52 µM	7.22 µM	2.68 µM	8.07 µM	2.12 µM	5.2 µM	2.07 µM	4.29 µM	1.83 µM	3.33 µM	1.27 µM	3.79 µM
COc1cccc(N2CCN(c3ncnc4cc[nH]c34)CC2)c1	19 µM	> 100 µM	24.4 µM	> 100 µM	10 µM	55.3 µM	2.46 µM	21.4 µM	3.47 µM	> 100 µM	1.57 µM	43 µM	10.3 µM	50.9 µM	10.7 µM	62.3 µM	0.394 µM	2.77 µM	2.92 µM	44.1 µM
O=C1C(Cl)=C(Nc2cc(Cl)ccc2O)C(=O)N1Cc1ccccc1	17.2 µM	31.9 µM	17 µM	32.6 µM	20.7 µM	37.5 µM	29.7 µM	> 81.9 µM	16.6 µM	31.5 µM	18.3 µM	38.4 µM	20.3 µM	53.3 µM	16.1 µM	34.2 µM	16.1 µM	29.9 µM	27.6 µM	> 100 µM
O=C(CSC(c1ccccc1)c1ccccc1)N/N=C/c1ccccc1Cl	2.18 µM	25.2 µM	8.36 µM	> 51 µM	6.28 µM	42.5 µM	6.33 µM	40.2 µM	12.8 µM	61.6 µM	15.9 µM	> 68.4 µM	> 62.5 µM	> 100 µM	46.1 µM	> 100 µM	21 µM	47.2 µM	> 100 µM	> 100 µM
COc1ccc(/C=C2\COc3ccc(O)c(O)c3C2=O)cc1OC	1.32 µM	2.75 µM	0.488 µM	5.73 µM	1.33 µM	3.2 µM	1.05 µM	9.13 µM	1.89 µM	5.56 µM	2.7 µM	7.18 µM	2.02 µM	5.28 µM	1.8 µM	3.69 µM	1.79 µM	3.4 µM	1.54 µM	9.6 µM
C=C1C(=O)O[C@H]2[C@H]1CC/C(COC(=O)CCCCCCCC(=O)OC/C1=C/CC[C@@]3(C)O[C@H]3[C@H]3OC(=O)C(=C)[C@@H]3CC1)=C\CC[C@@]1(C)O[C@@H]21	1.85 µM	5.51 µM	1.75 µM	4.16 µM	2.17 µM	5.3 µM	0.791 µM	11.4 µM	2.26 µM	6.52 µM	3.6 µM	15.2 µM	11.3 µM	31.5 µM	2.94 µM	11.4 µM	1.98 µM	4.1 µM	2.3 µM	8.26 µM
Cn1c2c(c3ccccc3c1=O)C(=O)c1ccccc1-2	–	–	–	> 100 µM	–	> 100 µM	–	> 100 µM	–	> 100 µM	–	> 100 µM	–	> 100 µM	–	> 100 µM	–	> 100 µM	–	> 100 µM
Cc1ccc(N=Nc2c(O)ccc3n[nH]nc23)cc1	11.5 µM	69.2 µM	12.3 µM	92.4 µM	8.17 µM	48 µM	2.89 µM	12.8 µM	5.65 µM	38.3 µM	11.3 µM	38 µM	19 µM	59.4 µM	20.6 µM	> 100 µM	3.19 µM	13.2 µM	10.2 µM	57.7 µM
CC1=CC(C)(C)Nc2ccc(Cc3ccc4c(c3)C(C)=CC(C)(C)N4)cc21	11.1 µM	> 100 µM	13.8 µM	72.6 µM	11.8 µM	42 µM	4.86 µM	54 µM	4.54 µM	> 100 µM	9.78 µM	> 100 µM	12.5 µM	40.6 µM	20.3 µM	> 100 µM	9.05 µM	22 µM	3.77 µM	35.2 µM
COc1cc2c3c(n(CCN4CCOCC4)c(=O)c2cc1OC)-c1ccccc1C3=O	35 µM	> 100 µM	> 100 µM	> 100 µM	> 100 µM	> 100 µM	55.5 µM	> 100 µM	–	–	34.6 µM	> 100 µM	> 100 µM	> 100 µM	> 100 µM	> 100 µM	> 100 µM	> 100 µM	27.4 µM	88 µM
COc1c(-c2ccc3c(c2)OCO3)oc2cc(O)cc(O)c2c1=O	–	> 100 µM	–	> 100 µM	–	–	–	> 100 µM	–	> 100 µM	–	> 100 µM	–	> 100 µM	–	> 100 µM	–	> 100 µM	–	64.7 µM
CCC[CH2][Sn]([CH2]CCC)([O]C(=O)c1cc(F)ccc1F)[O]C(=O)c1cc(F)ccc1F	1.4 µM	2.7 µM	1.18 µM	2.44 µM	0.703 µM	2.1 µM	0.347 µM	2.01 µM	0.731 µM	2.02 µM	1.77 µM	3.17 µM	0.649 µM	1.87 µM	1.09 µM	2.32 µM	1.57 µM	2.91 µM	–	–
Cc1ccc(-c2c3c(nn2-c2ccc(S(=O)(=O)NC(=O)NC4CCCCC4)cc2)-c2ccccc2C3)cc1	14.6 µM	29.5 µM	16.1 µM	47.7 µM	–	–	1.86 µM	6.14 µM	10.9 µM	27.1 µM	18.7 µM	48.7 µM	16.8 µM	32 µM	18.3 µM	37.5 µM	1.33 µM	9.39 µM	25.7 µM	> 100 µM
COc1ccc(/C=C\c2cc(OC)c(OC)c(OC)c2)cc1OC(=O)CC(N)C(=O)O (stereo not drawn)	0.000709 µM	> 100 µM	0.000452 µM	–	0.00102 µM	–	0.00172 µM	–	0.000635 µM	0.0465 µM	0.000726 µM	0.00305 µM and 0.00613 µM	0.00151 µM and 0.00249 µM	0.00812 µM	0.000728 µM	> 100 µM	0.000453 µM and 0.00141 µM	–	–	–
Cc1cc(-c2nc3n(c2/C=N/N=C(N)N)CCS3)c(C)s1	20 µM	39.5 µM	14.8 µM	28 µM	–	–	30.1 µM	> 100 µM	15 µM	28.2 µM	15.6 µM	29 µM	–	–	15.1 µM	29.4 µM	16.3 µM	29.9 µM	17.6 µM	32.5 µM
O=C1NC2(CCCCC2)C2CCCCC=C12 (stereo not drawn)	–	> 100 µM	–	> 100 µM	–	> 100 µM	–	> 100 µM	–	> 100 µM	–	> 100 µM	–	> 100 µM	–	> 100 µM	–	> 100 µM	–	–
CC(C)c1[nH]nc2c(NCc3ccc(-c4ccccn4)cc3)nc(SCCN)nc12	0.273 µM and 0.286 µM	4.7 µM	0.672 µM and 0.683 µM	10.9 µM	0.016 µM	0.0598 µM	0.00505 µM	0.169 µM and 0.102 µM	0.0212 µM and 0.0181 µM	0.797 µM and 0.0951 µM	0.0391 µM and 0.0425 µM	0.712 µM and 2.03 µM	0.0306 µM	0.105 µM	0.0197 µM and 0.0124 µM	0.171 µM and 0.239 µM	–	–	0.0182 µM	0.089 µM
Cc1cc(Cl)nc(N(CCCNc2ccnc3cc(Cl)ccc23)Cc2cccs2)n1	2 µM	11.5 µM	1.43 µM	10.1 µM	1.64 µM	3.46 µM	1.77 µM	11.8 µM	1.28 µM	5.8 µM	–	–	2.29 µM	6.54 µM	1.79 µM	5.78 µM	1.42 µM	2.79 µM	1.82 µM	8.02 µM
O=c1cc(-c2ccccc2)oc2cc(OCCCCCN3CCOCC3)cc(O)c12	> 100 µM	> 100 µM	42 µM	> 100 µM	–	–	99.7 µM	> 100 µM	–	–	40.2 µM	> 100 µM	25.4 µM	91.7 µM	> 100 µM	> 100 µM	> 100 µM	> 100 µM	42.5 µM	> 100 µM
O=C1CC(Cc2n[nH]c3c2CCCC3)CC(=O)N1	–	–	–	> 100 µM	–	> 100 µM	–	> 100 µM	–	> 100 µM	–	> 100 µM	–	> 100 µM	–	> 100 µM	–	> 100 µM	–	> 100 µM
COC(=O)c1ccc(NC(=O)c2ccc(NC3=C(Cl)C(=O)N(Cc4ccccc4)C3=O)cc2)cc1	17.2 µM	31 µM	14.6 µM	27.7 µM	–	–	13 µM	25.6 µM	12.1 µM	24.4 µM	10.2 µM	22 µM	17.3 µM	42.2 µM	23.6 µM	47.3 µM	34.7 µM	> 100 µM	74.1 µM	> 100 µM
COc1ccc2c(CCCc3ccc(Cl)cc3Cl)c3[n+](cc2c1OC)CCc1cc2c(cc1-3)OCO2	1.44 µM	3.15 µM	1.72 µM	3.29 µM	–	–	–	–	0.327 µM	1.42 µM	–	–	–	–	0.492 µM	1.83 µM	0.212 µM	0.561 µM	0.325 µM	1.84 µM
CCn1cc(C(=O)N/N=C/c2cccs2)c(=O)c2cc(F)c(N3CCNC(C)C3)c(F)c21 (stereo not drawn)	1.67 µM	3.04 µM	1.47 µM	2.82 µM	–	–	–	–	1.79 µM	3.47 µM	1.85 µM	3.45 µM	1.96 µM	3.95 µM	–	–	1.78 µM	3.19 µM	1.68 µM	3.45 µM
COC(=O)c1ccc(C(=O)OC)c2nc3cc(Cl)ccc3nc12	–	> 100 µM	–	> 100 µM	–	> 100 µM	–	> 100 µM	–	> 100 µM	–	> 100 µM	–	> 100 µM	–	> 100 µM	–	> 100 µM	–	–
C[C@]12CC(C=O)C(=O)C(O)=C1CC[C@@H]1C2CC[C@@]2(C)C1CC[C@]2(C)O (stereo partly drawn)	–	51.2 µM	–	60.8 µM	–	22 µM	–	52 µM	–	46.4 µM	–	66.6 µM	–	26.6 µM	–	68.1 µM	–	34.5 µM	–	–
C=CCC(N[C@H](CO)c1ccccc1)c1ccccn1 (stereo partly drawn)	> 100 µM	> 100 µM	> 100 µM	> 100 µM	> 100 µM	> 100 µM	–	–	> 100 µM	> 100 µM	> 100 µM	> 100 µM	> 100 µM	> 100 µM	> 100 µM	> 100 µM	> 100 µM	> 100 µM	> 100 µM	> 100 µM
CN(C)N=Nc1cccc(C(N)=O)c1	–	> 100 µM	–	> 100 µM	–	> 100 µM	–	> 100 µM	–	> 100 µM	–	> 100 µM	–	> 100 µM	–	> 100 µM	–	> 100 µM	–	–
Cc1ccc(C)c(NC(=O)C(=O)C2C(=O)N(c3ccccc3)N=C2N)c1 (stereo not drawn)	–	> 100 µM	–	> 100 µM	–	> 100 µM	–	> 100 µM	–	> 100 µM	–	> 100 µM	–	> 100 µM	–	> 100 µM	–	> 100 µM	–	–
CCCCCCCCC(C)CCCCCCCCC(=O)OCC(COP(=O)([O-])OCC[N+](C)(C)C)OC(=O)CCCCCCCCC(C)CCCCCCCC (stereo not drawn)	–	> 100 µM	–	> 100 µM	–	> 100 µM	–	> 100 µM	–	> 100 µM	–	> 100 µM	–	> 100 µM	–	> 100 µM	–	> 100 µM	–	–
COC(=O)C(=O)C(C(C)=O)C(=O)NCc1ccccc1 (stereo not drawn)	–	> 100 µM	–	> 100 µM	–	> 100 µM	–	> 100 µM	–	> 100 µM	–	> 100 µM	–	> 100 µM	–	> 100 µM	–	> 100 µM	–	–
